# Laboratory results published in patent US20110166112A1, “METHOD FOR STIMULATING PLATELET PRODUCTION” (Eisai, Inc., priority 2009, published 2011).
# Marks after values point to notes of the source that are not given here.
# Test system: subjects with chronic ITP
# Assay: Recurrence of thrombocytopenia upon discontinuation of E5501 (platelet count below 10,000/mm^3)
# Format: in vivo, human
# Details: for Recurrence of thrombocytopenia: Relation To E5501: assessed by the investigator
# Method: Recurrence of Thrombocytopenia. Recurrence of thrombocytopenia has been previously reported and is of special interest in this population. Recurrence of thrombocytopenia was defined as a platelet count that decreased to below 10,000/mm^3 upon discontinuation of E5501. In this study, 9 subjects potentially met the criteria for recurrence of thrombocytopenia. Three were deemed serious; all 3 recovered.
# All 9 cases occurred at an E5501 dose of 10 mg or above, and the majority (n=6/9) occurred within 2 weeks after discontinuation of E5501 (FIG. 3). However, recurrent thrombocytopenia was seen up to 4 weeks after the last dose of study drug.
smiles,measurement,setting,value
"O=C(Nc1nc(-c2cc(Cl)cs2)c(N2CCN(C3CCCCC3)CC2)s1)c1cnc(N2CCC(C(=O)O)CC2)c(Cl)c1 [E5501, 1-(3-chloro-5-{[4-(4-chlorothiophen-2-yl)-5-(4-cyclohexylpiperazin-1-yl)thiazol-2-yl]carbamoyl}pyridine-2-yl)piperidine-4-carboxylic acid]",Recurrence of thrombocytopenia: Outcome,"Subject A, 20-30 mg, 1st entry",Recovered
same,Recurrence of thrombocytopenia: Platelet Count,"Subject A, 20-30 mg, 1st entry",3 K/mm^3
same,Recurrence of thrombocytopenia: Serious,"Subject A, 20-30 mg, 1st entry",No
same,Recurrence of thrombocytopenia: Study Days (No. Days Posttreatment),"Subject A, 20-30 mg, 1st entry",193 (17) Days
same,Recurrence of thrombocytopenia: Relation To E5501,"Subject A, 20-30 mg, 1st entry",Not related
same,Recurrence of thrombocytopenia: Outcome,"Subject A, 20-30 mg, 2nd entry",Recovered
same,Recurrence of thrombocytopenia: Platelet Count,"Subject A, 20-30 mg, 2nd entry",6 K/mm^3
same,Recurrence of thrombocytopenia: Serious,"Subject A, 20-30 mg, 2nd entry",No
same,Recurrence of thrombocytopenia: Study Days (No. Days Posttreatment),"Subject A, 20-30 mg, 2nd entry",235 (59) Days
same,Recurrence of thrombocytopenia: Relation To E5501,"Subject A, 20-30 mg, 2nd entry",Not related
same,Recurrence of thrombocytopenia: Outcome,"Subject A, 20-30 mg, 3rd entry",Recovered
same,Recurrence of thrombocytopenia: Platelet Count,"Subject A, 20-30 mg, 3rd entry",4 K/mm^3
same,Recurrence of thrombocytopenia: Serious,"Subject A, 20-30 mg, 3rd entry",No
same,Recurrence of thrombocytopenia: Study Days (No. Days Posttreatment),"Subject A, 20-30 mg, 3rd entry",249 (73) Days
same,Recurrence of thrombocytopenia: Relation To E5501,"Subject A, 20-30 mg, 3rd entry",Not related
same,Recurrence of thrombocytopenia: Platelet Count,"Subject B, 10 mg",1 K/mm^3
same,Recurrence of thrombocytopenia: Serious,"Subject B, 10 mg",No
same,Recurrence of thrombocytopenia: Study Days (No. Days Posttreatment),"Subject B, 10 mg",209 (28) Days
same,Recurrence of thrombocytopenia: Outcome,"Subject C, 10-20 mg",Recovered
same,Recurrence of thrombocytopenia: Platelet Count,"Subject C, 10-20 mg",6 K/mm^3
same,Recurrence of thrombocytopenia: Serious,"Subject C, 10-20 mg",No
same,Recurrence of thrombocytopenia: Study Days (No. Days Posttreatment),"Subject C, 10-20 mg",182 (14) Days
same,Recurrence of thrombocytopenia: Relation To E5501,"Subject C, 10-20 mg",Probably
same,Recurrence of thrombocytopenia: Outcome,"Subject D, 20 mg",Recovered
same,Recurrence of thrombocytopenia: Platelet Count,"Subject D, 20 mg",1 K/mm^3
same,Recurrence of thrombocytopenia: Serious,"Subject D, 20 mg",Serious
same,Recurrence of thrombocytopenia: Study Days (No. Days Posttreatment),"Subject D, 20 mg",193 (10) Days
same,Recurrence of thrombocytopenia: Relation To E5501,"Subject D, 20 mg",Not related
same,Recurrence of thrombocytopenia: Platelet Count,"Subject E, 10 mg",8 K/mm^3
same,Recurrence of thrombocytopenia: Serious,"Subject E, 10 mg",No
same,Recurrence of thrombocytopenia: Study Days (No. Days Posttreatment),"Subject E, 10 mg",209 (7) Days
same,Recurrence of thrombocytopenia: Outcome,"Subject F, 20 mg",Recovered
same,Recurrence of thrombocytopenia: Platelet Count,"Subject F, 20 mg",8 K/mm^3
same,Recurrence of thrombocytopenia: Serious,"Subject F, 20 mg",Serious
same,Recurrence of thrombocytopenia: Study Days (No. Days Posttreatment),"Subject F, 20 mg",192 (11) Days
same,Recurrence of thrombocytopenia: Relation To E5501,"Subject F, 20 mg",Not related
same,Recurrence of thrombocytopenia: Outcome,"Subject G, 2.5-12.5 mg",Recovered
same,Recurrence of thrombocytopenia: Serious,"Subject G, 2.5-12.5 mg",Serious
same,Recurrence of thrombocytopenia: Study Days (No. Days Posttreatment),"Subject G, 2.5-12.5 mg",179 (13) Days
same,Recurrence of thrombocytopenia: Relation To E5501,"Subject G, 2.5-12.5 mg",Probably
same,Recurrence of thrombocytopenia: Platelet Count,"Subject G, 2.5-12.5 mg, recorded 3 days before the event",16^g K/mm^3
same,Recurrence of thrombocytopenia: Outcome,"Subject H, 10-40 mg",Recovered
same,Recurrence of thrombocytopenia: Platelet Count,"Subject H, 10-40 mg",4 K/mm^3
same,Recurrence of thrombocytopenia: Serious,"Subject H, 10-40 mg",No
same,Recurrence of thrombocytopenia: Study Days (No. Days Posttreatment),"Subject H, 10-40 mg",143 (16) Days
same,Recurrence of thrombocytopenia: Relation To E5501,"Subject H, 10-40 mg",Not related
same,Recurrence of thrombocytopenia: Outcome,"Subject I, 10-20 mg, 1st entry",Recovered
same,Recurrence of thrombocytopenia: Platelet Count,"Subject I, 10-20 mg, 1st entry",8 K/mm^3
same,Recurrence of thrombocytopenia: Serious,"Subject I, 10-20 mg, 1st entry",No
same,Recurrence of thrombocytopenia: Study Days (No. Days Posttreatment),"Subject I, 10-20 mg, 1st entry",181 (13) Days
same,Recurrence of thrombocytopenia: Relation To E5501,"Subject I, 10-20 mg, 1st entry",Not related
same,Recurrence of thrombocytopenia: Outcome,"Subject I, 10-20 mg, 2nd entry",Recovered
same,Recurrence of thrombocytopenia: Platelet Count,"Subject I, 10-20 mg, 2nd entry",9 K/mm^3
same,Recurrence of thrombocytopenia: Serious,"Subject I, 10-20 mg, 2nd entry",No
same,Recurrence of thrombocytopenia: Study Days (No. Days Posttreatment),"Subject I, 10-20 mg, 2nd entry",233 (65) Days
same,Recurrence of thrombocytopenia: Relation To E5501,"Subject I, 10-20 mg, 2nd entry",Not related
same,recurrences of thrombocytopenia deemed serious,in vivo,Three
same,recurrences of thrombocytopenia within 2 weeks after discontinuation of E5501,of 9 cases,6 n
same,subjects who potentially met the criteria for recurrence of thrombocytopenia,"upon discontinuation, E5501 dose of 10 mg or above",9 subjects
